Assay: Human HepG2 cell viability assay in 384 well format
Assay type: toxicity, cell-based
Parameters: dose 125 nL, time 70.5 hour; concentration not given beside the values
Details: HepG2 cells, read-out: Inhibition

CCc1cnc(CN(C)C2CCN(c3sccc3C#N)C2=O)s1 (configuration not stated)
cytotoxicity at 70.5 h: 13.4%

O=C(NC1(C(=O)NCC2CC2)CCCC1)C1Cc2cc(F)ccc2O1 (configuration not stated)
cytotoxicity at 70.5 h: -4.27%

COCCn1c(C(=O)NCC(C)C(=O)O)cc2ccccc21 (configuration not stated)
cytotoxicity at 70.5 h: 0.983%

COC(=O)C1CCCCN1C(=O)c1ccc(N(C)C)cc1F (configuration not stated)
cytotoxicity at 70.5 h: 2.71%

Cc1nc(CN(C)C(=O)Nc2cccc(COC(C)C)c2)no1
cytotoxicity at 70.5 h: -1.56%

CCCN(C(=O)CN1CCN(CC(C)O)CC1)C1=CCCCC1 (configuration not stated)
cytotoxicity at 70.5 h: 35.9%

CCC(C)CS(=O)(=O)NCCc1csc(N2CCCC2)n1 (configuration not stated)
cytotoxicity at 70.5 h: -1.21%

CCc1ncc(CN(C)C2CCN(c3sccc3C#N)C2=O)s1 (configuration not stated)
cytotoxicity at 70.5 h: -2.11%

CN(CC(=O)N(C)C)Cc1ccc(C#N)cc1F
cytotoxicity at 70.5 h: 11.5%

NCC1(CN2CCOCC2)CCCCC1
cytotoxicity at 70.5 h: 14.2%

CC(NC(=O)c1cccc[n+]1[O-])C1CC1 (configuration not stated)
cytotoxicity at 70.5 h: -4.24%

CCN(Cc1ccc(C#N)cc1F)C(=O)C(C)(C)C
cytotoxicity at 70.5 h: -0.767%

CC(C)c1cc(C(=O)N2Cc3ccccc3CC2C(=O)O)nn1C (configuration not stated)
cytotoxicity at 70.5 h: -2.03%

CN(CC(=O)N(C)C(c1ccc(Cl)cc1)c1cccnc1)C1CC1 (configuration not stated)
cytotoxicity at 70.5 h: -5.57%

COCCNC(=O)c1ccc(NCc2csc(C)n2)cc1Cl
cytotoxicity at 70.5 h: -2.04%

CN(Cc1ccccc1F)C(=O)c1cc(Cl)c[nH]1
cytotoxicity at 70.5 h: -2.89%

CN(Cc1ccsc1)C(=O)COC(=O)c1cc(Cl)c[nH]1
cytotoxicity at 70.5 h: -2.89%

CC1COCCN1C(=O)COc1ccc(Oc2ccccn2)cc1 (configuration not stated)
cytotoxicity at 70.5 h: 1.4%

O=C(Nc1cc(C(F)(F)F)c[nH]c1=O)C1CCCNC1 (configuration not stated)
cytotoxicity at 70.5 h: -8%

O=C(Nc1cc(C(F)(F)F)c[nH]c1=O)C1CCNCC1
cytotoxicity at 70.5 h: -12.8%

O=C(Nc1cc(C(F)(F)F)c[nH]c1=O)C1CCCN1 (configuration not stated)
cytotoxicity at 70.5 h: -10.7%

N#CCCCS(=O)(=O)NC1(c2cccc(Cl)c2)CC1
cytotoxicity at 70.5 h: -9.01%

Cc1cc(NCc2cn(C)nc2-c2cccnc2)n(C)n1
cytotoxicity at 70.5 h: -2.96%

COCC(=O)Nc1ccc(C)cc1-c1nc(C2CC2)no1
cytotoxicity at 70.5 h: -7.26%

CN(C)C1(CNC(=O)c2c(O)cc(Cl)cc2Cl)CCOCC1
cytotoxicity at 70.5 h: -9.63%

Cc1ccc(NC(=O)N2CC[C@@H](O)C2)c(-c2nc(C3CC3)no2)c1
cytotoxicity at 70.5 h: -3.95%

CCCS(=O)(=O)CCN1CCN(C(C#N)c2ccccc2)CC1 (configuration not stated)
cytotoxicity at 70.5 h: -8.86%

CNS(=O)(=O)CCCN1CCN(C(C#N)c2ccccc2)CC1 (configuration not stated)
cytotoxicity at 70.5 h: -11.2%

CNC(=O)c1cccc(CN2CCN(C3=NCC(C)(C)S3)CC2)c1
cytotoxicity at 70.5 h: -5.92%

CC(C)c1cc(N2CCC(NS(C)(=O)=O)C2)nc(C(C)C)n1 (configuration not stated)
cytotoxicity at 70.5 h: -10.9%

Cc1noc(NCc2cn(C)nc2-c2cccnc2)n1
cytotoxicity at 70.5 h: -12.1%

CC(NC(=O)N(C)C1CC1)c1ccc(Oc2cccnc2)c(F)c1 (configuration not stated)
cytotoxicity at 70.5 h: -8.76%

CC(C)S(=O)(=O)CCN1CCN(C(C#N)c2ccccc2)CC1 (configuration not stated)
cytotoxicity at 70.5 h: -7.44%

Cc1ccc(C(=O)N(CC(=O)O)CC(C)C)cc1F
cytotoxicity at 70.5 h: -7.92%

CCN(Cc1ccncc1)C1CCN(c2ccccc2)C1=O (configuration not stated)
cytotoxicity at 70.5 h: 1.49%

Cc1ccc(-c2nnn(CCN3C(=O)CCC3=O)n2)cc1
cytotoxicity at 70.5 h: -3.33%

O=C1CCC(=O)N1CCn1nnc(-c2cccc(Cl)c2)n1
cytotoxicity at 70.5 h: 1.35%

COc1ccc(C)cc1CN(C)CC(N)=O
cytotoxicity at 70.5 h: -7.37%

Cc1noc(C)c1C(=O)N1CCC(n2cccn2)CC1
cytotoxicity at 70.5 h: -3.66%

CC(C)CCc1noc(C[S+]([O-])CC(=O)NCc2ccccc2)n1 (configuration not stated)
cytotoxicity at 70.5 h: -1.48%

Cc1c(NC(=O)NCCO)cccc1OC1CCCC1
cytotoxicity at 70.5 h: -8.09%

Cc1ccc(N(CCC#N)C(=O)CCc2cscn2)cc1C
cytotoxicity at 70.5 h: -3.27%

CCN(Cc1nccn1C)C1CCN(c2ccccc2)C1=O (configuration not stated)
cytotoxicity at 70.5 h: -2.87%

Cc1c(NC(=O)NC(C)CCO)cccc1OC1CCCC1 (configuration not stated)
cytotoxicity at 70.5 h: -2.19%

CC(C)c1ccccc1OCCNC(=O)N1CCC2(CC1)OCCO2
cytotoxicity at 70.5 h: -2.15%

COc1c(C2CCCN2C(=O)c2ccc(C(N)=O)s2)c(C)nn1C (configuration not stated)
cytotoxicity at 70.5 h: -7.38%

O=C(Nc1cc(C(F)(F)F)c[nH]c1=O)C1CCCCN1 (configuration not stated)
cytotoxicity at 70.5 h: -8.9%
